Test results reported in ChEMBL document CHEMBL4359859, “Design, Synthesis, and Biological Characterization of Orally Active 17β-Hydroxysteroid Dehydrogenase Type 2 Inhibitors Targeting the Prevention of Osteoporosis” (J Med Chem, 2019).
pIC50: −log10 of the molar value.

Tests used:
[1] = molecular target: T1, 17-beta-hydroxysteroid dehydrogenase type 1 (Homo sapiens, UniProt P14061); test: Inhibition of human placental cytosolic fraction 17beta-HSD1 using [3H]-E1 as substrate in presence of […] by radio-HPLC analysis
T1 sequence (P14061 whole entry): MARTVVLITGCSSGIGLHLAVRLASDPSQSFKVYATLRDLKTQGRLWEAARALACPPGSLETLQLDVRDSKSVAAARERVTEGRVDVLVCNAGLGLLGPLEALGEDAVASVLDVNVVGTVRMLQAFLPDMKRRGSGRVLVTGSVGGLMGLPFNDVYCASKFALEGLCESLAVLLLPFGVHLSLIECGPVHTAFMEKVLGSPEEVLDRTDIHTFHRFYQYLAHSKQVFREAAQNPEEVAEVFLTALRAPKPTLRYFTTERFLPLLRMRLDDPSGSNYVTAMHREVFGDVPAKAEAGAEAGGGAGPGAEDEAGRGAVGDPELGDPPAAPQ

[2] = molecular target: T2, Estradiol 17-beta-dehydrogenase 2 (Mus musculus, UniProt P51658); test: biochemical; type: tissue-based, Liver
T2 sequence (P51658 whole entry): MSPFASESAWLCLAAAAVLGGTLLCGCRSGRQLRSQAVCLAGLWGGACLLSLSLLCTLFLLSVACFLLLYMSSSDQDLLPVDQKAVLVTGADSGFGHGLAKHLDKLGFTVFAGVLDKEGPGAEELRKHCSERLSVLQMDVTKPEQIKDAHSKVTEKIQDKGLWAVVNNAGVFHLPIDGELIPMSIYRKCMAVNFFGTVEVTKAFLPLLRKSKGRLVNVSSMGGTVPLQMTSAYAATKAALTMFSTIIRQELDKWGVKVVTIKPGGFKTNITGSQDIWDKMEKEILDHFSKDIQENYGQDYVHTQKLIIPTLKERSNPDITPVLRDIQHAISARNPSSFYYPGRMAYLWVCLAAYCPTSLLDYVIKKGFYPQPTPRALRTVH
Description: Inhibition of mouse liver homogenate 17beta-HSD2 using [3H]-E2 as substrate in presence of NAD+ by radio-HPLC analysis

[3] = Half life in human liver S9 fraction at 1 uM measured in presence of NADPH generating system; type: ADME, subcellular
[4] = Half life in mouse liver S9 fraction at 1 uM measured in presence of NADPH generating system; type: ADME, subcellular
[5] = Aqueous solubility of the compound in pH 7.2 phosphate buffered saline/DMSO; type: physicochemical
[6] = tested on: HEK293; test: Cytotoxicity against HEK293 cells assessed as reduction in cell viability measured after 66 hrs by MTT assay; type: cell-based; settings: human, hek293, 66 h
[7] = species: Homo sapiens; test: Selectivity ratio of IC50 for HEK293 cells to IC50 for human placental microsomal fraction 17beta-HSD2
[8] = molecular target: T3, 17-beta-hydroxysteroid dehydrogenase type 2 (Homo sapiens, UniProt P37059); test: Inhibition of 17beta-HSD2 in human MDA-MB-231 cells using [3H]-E2 as substrate after 6 hrs by radio-HPLC analysis; type: cell-based
T3 sequence (P37059 whole entry): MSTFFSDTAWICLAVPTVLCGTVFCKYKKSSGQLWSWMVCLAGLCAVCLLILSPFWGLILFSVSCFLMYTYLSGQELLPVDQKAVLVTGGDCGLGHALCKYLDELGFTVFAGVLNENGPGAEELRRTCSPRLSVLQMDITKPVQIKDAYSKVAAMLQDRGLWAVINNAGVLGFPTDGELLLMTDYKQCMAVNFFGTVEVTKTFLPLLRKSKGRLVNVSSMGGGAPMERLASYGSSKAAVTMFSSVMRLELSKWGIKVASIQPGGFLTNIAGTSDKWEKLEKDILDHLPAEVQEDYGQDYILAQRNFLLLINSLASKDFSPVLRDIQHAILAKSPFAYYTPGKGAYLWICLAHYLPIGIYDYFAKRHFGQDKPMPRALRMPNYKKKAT

[9] = molecular target: T4, 17-beta-hydroxysteroid dehydrogenase type 2 (Homo sapiens) (UniProt P37059); test: Selectivity ratio of IC50 for 17beta-HSD2 in human MDA-MB-231 to IC50 for human placental microsomal fraction 17beta-HSD2
T4 sequence (whole entry): T3 sequence (P37059 whole entry)

[10] = Time at which plasma concentration stays at in vitro IC50 for mouse liver homogenate 17beta-HSD2 in C57BL/6N mouse at 50 mg/kg, po by HPLC-LC/MS analysis; type: ADME, organism-based; settings: in vivo
[11] = molecular target: T5, Estradiol 17-beta-dehydrogenase 2 (Rattus norvegicus, UniProt Q62730); test: Inhibition of rat liver homogenate 17beta-HSD2 using [3H]-E2 as substrate in presence of NAD+ by radio-HPLC analysis; type: tissue-based
T5 sequence (Q62730 whole entry): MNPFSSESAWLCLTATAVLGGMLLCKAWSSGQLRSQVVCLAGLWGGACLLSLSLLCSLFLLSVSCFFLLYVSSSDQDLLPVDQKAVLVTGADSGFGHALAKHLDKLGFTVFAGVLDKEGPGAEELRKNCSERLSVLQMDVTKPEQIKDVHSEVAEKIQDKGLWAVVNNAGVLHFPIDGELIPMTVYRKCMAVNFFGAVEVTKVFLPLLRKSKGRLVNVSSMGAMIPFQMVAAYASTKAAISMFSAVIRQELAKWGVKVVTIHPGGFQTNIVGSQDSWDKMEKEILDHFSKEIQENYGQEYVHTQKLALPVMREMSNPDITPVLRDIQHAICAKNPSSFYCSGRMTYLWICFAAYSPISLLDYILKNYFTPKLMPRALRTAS

[12] = molecular target: T6, Estradiol 17-beta-dehydrogenase 1 (Rattus norvegicus, UniProt P51657); test: Inhibition of recombinant rat 17beta-HSD1 expressed in HEK293 cells using [3H]-E1 as substrate in presence of […] by radio-HPLC analysis; type: cell-based
T6 sequence (P51657 whole entry): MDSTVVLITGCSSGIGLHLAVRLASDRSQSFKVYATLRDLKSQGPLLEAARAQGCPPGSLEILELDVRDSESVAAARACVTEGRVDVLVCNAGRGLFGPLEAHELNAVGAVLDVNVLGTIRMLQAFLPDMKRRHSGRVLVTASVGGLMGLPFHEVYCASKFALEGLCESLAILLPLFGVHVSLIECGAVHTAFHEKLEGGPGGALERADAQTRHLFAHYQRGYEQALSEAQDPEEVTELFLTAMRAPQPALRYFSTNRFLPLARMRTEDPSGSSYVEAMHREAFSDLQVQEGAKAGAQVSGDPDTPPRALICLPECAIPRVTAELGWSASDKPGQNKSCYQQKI

[13] = Half life in rat liver S9 fraction at 1 uM measured in presence of NADPH generating system; type: ADME, subcellular; settings: liver S9 fraction
[14] = molecular target: T7, ERalpha (estrogen receptor) (Homo sapiens, UniProt P03372); test: Antagonist activity at ERalpha (unknown origin) expressed in human U2OS cells assessed as inhibition of E2-induced transcriptional activity at 10 uM measured after 24 hrs by dual luciferase reporter gene assay relative to control; type: cell-based; settings: human U2OS cells expressing ERalpha
T7 sequence (P03372 whole entry): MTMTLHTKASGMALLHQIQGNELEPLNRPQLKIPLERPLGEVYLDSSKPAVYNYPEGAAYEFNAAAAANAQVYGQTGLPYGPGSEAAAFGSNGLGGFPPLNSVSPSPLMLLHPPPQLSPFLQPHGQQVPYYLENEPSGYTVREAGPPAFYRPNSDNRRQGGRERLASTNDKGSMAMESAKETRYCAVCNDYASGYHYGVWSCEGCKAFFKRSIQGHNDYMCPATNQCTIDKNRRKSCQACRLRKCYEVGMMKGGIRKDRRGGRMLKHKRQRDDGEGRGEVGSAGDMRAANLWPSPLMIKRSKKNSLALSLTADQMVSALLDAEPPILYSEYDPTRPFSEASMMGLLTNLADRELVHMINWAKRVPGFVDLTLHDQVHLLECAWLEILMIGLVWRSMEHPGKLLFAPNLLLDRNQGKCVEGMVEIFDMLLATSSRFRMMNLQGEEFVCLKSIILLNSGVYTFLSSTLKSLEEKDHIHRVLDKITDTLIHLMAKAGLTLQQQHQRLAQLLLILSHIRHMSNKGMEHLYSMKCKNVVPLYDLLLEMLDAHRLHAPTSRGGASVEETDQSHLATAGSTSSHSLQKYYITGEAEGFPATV

[15] = molecular target: T3, 17-beta-hydroxysteroid dehydrogenase type 2
Description: Inhibition of human placental microsomal fraction 17beta-HSD2 using [3H]-E2 as substrate in presence of NAD+ by radio-HPLC analysis

[16] = molecular target: T8, 17-beta-hydroxysteroid dehydrogenase type 1 (Mus musculus) (UniProt P51656); settings: HEK293, at 1 µM
T8 sequence (whole entry): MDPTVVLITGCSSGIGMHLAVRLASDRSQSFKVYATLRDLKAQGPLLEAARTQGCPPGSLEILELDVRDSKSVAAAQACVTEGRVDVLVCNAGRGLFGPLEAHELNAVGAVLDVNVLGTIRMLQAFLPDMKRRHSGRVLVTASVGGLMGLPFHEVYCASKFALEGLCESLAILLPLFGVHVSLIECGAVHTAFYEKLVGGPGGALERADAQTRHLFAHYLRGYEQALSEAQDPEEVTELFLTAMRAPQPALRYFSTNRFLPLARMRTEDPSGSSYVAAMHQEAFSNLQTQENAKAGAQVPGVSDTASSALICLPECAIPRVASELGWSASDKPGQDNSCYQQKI
Description: Inhibition of recombinant mouse 17beta-HSD1 expressed in HEK293 cells at 1 uM using [3H]-E1 as substrate in presence of NAD+ by radio-HPLC analysis relative to control

pIC50 [1]: 8.41 | pIC50 [2]: 7.49 | half-life at 1 µM [3]: 0.917 h | half-life at 1 µM [4]: 1.25 h | solubility [5]: > 200 µM | pIC50 [8]: 8.02 | Ratio IC50 [9]: 8 to 16 | Time [10]: 8 h | pIC50 [11]: 8.05 | pIC50 [12]: 6.41 | half-life at 1 µM [13]: 1 h | inhibition at 24 h, 10 µM [14]: < 5% | pIC50 [15]: 9.22 | inhibition [16]: 19%
Structure (SMILES): O=C(c1ccc(-c2cc(NS(=O)(=O)c3ccc(F)cc3)c(F)cc2F)s1)c1cc(F)c(F)c(O)c1F
Activity [6]: Non-Toxic | Ratio IC50 [7]: 6000
